The source of these data is patent US9938258B2 (Karyopharm Therapeutics Inc., priority 2012, dated 2018).

In one experiment the test system is MS751 cells. As to the kind of experiment: MTT cell proliferation assay, MS751. The format is cell-based, human. As to conditions: read-out: MTT Assay IC50, MS751. Put shortly:
(§1)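 Cells were seeded at 5,000-10,000 per well, left to attach overnight, then exposed to eight compound concentrations from 1 nM to 30 μM. After about 4 h with MTT, solubilized formazan was read at 490 nm and percent inhibition versus negative control was calculated.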

The test system of the next experiment is Z138 cells. As to the kind of experiment: MTT cell proliferation assay, Z138. The format is cell-based. To be noted: read-out: MTT Assay IC50, Z138. The method, boiled down: as §1
In general terms: Tetrazolium dyes change colour on reduction, which living cells bring about.

The test system of another experiment is 3T3 cells. Description: MTT cell proliferation assay, 3T3. As to conditions: read-out: MTT Assay IC50, 3T3. The format is cell-based, mouse. The method, boiled down: as §1
Where [1] appears, read: Homo sapiens, MS751, MS751 cells, approximately 64-72 hours incubation.
Setting [2] is: Homo sapiens, Z-138, Z138 cells, approximately 64-72 hours incubation.
Setting [3] is: Mus musculus, NIH3T3, 3T3 cells, approximately 64-72 hours incubation.
[4] abbreviates: Homo sapiens, MS751, MS751 cells, eight concentrations 1 nM to 30 μM, incubation approximately 64-72 hours.
Setting [5] is: Homo sapiens, Z-138, Z138 cells, eight concentrations 1 nM to 30 μM, incubation approximately 64-72 hours.
[6] abbreviates: Mus musculus, NIH3T3, 3T3 cells, eight concentrations 1 nM to 30 μM, incubation approximately 64-72 hours.

Like-named read-outs stand apart in the source and are kept apart here.

Broadly, the IC50 is the concentration that gives 50% inhibition. Take `Nc1ccc(/C=C/C(=O)NCC2Cc3c(-c4ccc(C(=O)N5CC(F)(F)C5)cc4)ccc(Cl)c3O2)cn1` (stereo not drawn) [Compound 340, (E)-3-(6-aminopyridin-3-yl)-N-((7-chloro-4-(4-(3,3-difluoroazetidine-1-carbonyl)phenyl)-2,3-dihydrobenzofuran-2-yl)methyl)acrylamide]: the values for the IC50 in the experiment on MS751 cells (setting [1]), in the experiment with Z138 cells (setting [2]) and with 3T3 cells (setting [3]) were below 0.1 µM, 0.1 to 5 µM and below 0.1 µM, respectively.

In the case of `CC(=O)c1ccc(-c2cc(Cl)c3c(c2)CC(CNC(=O)/C=C/c2cnn(C)c2C)O3)s1` (stereo not drawn) [Compound 157, (E)-N-((5-(5-acetylthiophen-2-yl)-7-chloro-2,3-dihydrobenzofuran-2-yl)methyl)-3-(1,5-dimethyl-1H-pyrazol-4-yl)acrylamide], the IC50 in the experiment with MS751 cells (setting [4]), in the experiment on Z138 cells (setting [5]) and in the experiment with 3T3 cells (setting [6]) was above 30 µM throughout.

For the molecule `Cc1noc(-c2ccccc2)c1-c1cc(Cl)c2c(c1)CC(CNC(=O)/C=C/c1ccc(N)nc1)O2` (stereo not drawn) [Compound 327, (E)-3-(6-aminopyridin-3-yl)-N-((7-chloro-5-(3-methyl-5-phenylisoxazol-4-yl)-2,3-dihydrobenzofuran-2-yl)methyl)acrylamide], the IC50 in the experiment on MS751 cells (setting [1]) was 0.1 to 5 µM; in the experiment on Z138 cells (setting [2]) it was below 0.1 µM; with 3T3 cells (setting [3]), 0.1 to 5 µM.

As to `Nc1ccc(/C=C/C(=O)NCC2Cc3cc(-c4ccc(C(=O)N5CCOCC5)nn4)cc(Cl)c3O2)cn1` (stereo not drawn) [Compound 331, (E)-3-(6-Aminopyridin-3-yl)-N-((7-chloro-5-(6-(morpholine-4-carbonyl)pyridazin-3-yl)-2,3-dihydrobenzofuran-2-yl)methyl)acrylamide], the half-maximal inhibitory concentration (IC50) is 0.1 to 5 µM in the experiment with MS751 cells (setting [1]), below 0.1 µM in the experiment on Z138 cells (setting [2]) and 5 to 30 µM with 3T3 cells (setting [3]).

For `Nc1ccc(/C=C/C(=O)NCC2Cc3cc(-c4ccc(C(=O)N5CCOCC5)c(F)c4)cc(Cl)c3O2)cn1` (stereo not drawn) [Compound 903, (E)-3-(6-aminopyridin-3-yl)-N-((7-chloro-5-(3-fluoro-4-(morpholine-4-carbonyl)phenyl)-2,3-dihydrobenzofuran-2-yl)methyl)acrylamide], the IC50 in the experiment on MS751 cells (setting [1]) was below 0.1 µM; in the experiment on Z138 cells (setting [2]) it was below 0.1 µM; with 3T3 cells (setting [3]) it was 0.1 to 5 µM.

Turning to `Nc1ccc(/C=C/C(=O)NCC2Cc3cc(-c4ccc(C(=O)N5CCOCC5)nc4)cc(Cl)c3O2)cn1` (stereo not drawn) [Compound 248, (E)-3-(6-aminopyridin-3-yl)-N-((7-chloro-5-(6-(morpholine-4-carbonyl)pyridin-3-yl)-2,3-dihydrobenzofuran-2-yl)methyl)acrylamide], the IC50 in the experiment on MS751 cells (setting [1]) is 0.1 to 5 µM; in the experiment on Z138 cells (setting [2]) it was below 0.1 µM; in the experiment with 3T3 cells (setting [3]), above 30 µM.

Regarding `CC(=O)c1ccc(-c2cc(Cl)c3c(c2)CC(CNC(=O)/C=C/c2cc(C)on2)O3)s1` (stereo not drawn) [Compound 277, (E)-N-((5-(5-acetylthiophen-2-yl)-7-chloro-2,3-dihydrobenzofuran-2-yl)methyl)-3-(5-methylisoxazol-3-yl)acrylamide], the half-inhibitory concentration (IC50) with MS751 cells (setting [4]) was 0.1 to 5 µM; in the experiment with Z138 cells (setting [5]), above 30 µM; with 3T3 cells (setting [6]), above 30 µM.

`CC(=O)c1ccc(-c2cc(Cl)c3c(c2)CC(CNC(=O)/C=C/c2cccnn2)O3)s1` (single isomer, unassigned) [Compound 318, (E)-N-((5-(5-acetylthiophen-2-yl)-7-chloro-2,3-dihydrobenzofuran-2-yl)methyl)-3-(pyridazin-3-yl)acrylamide]: the IC50 in the experiment with MS751 cells (MS751 cells, approximately 64-72 hours incubation) is 0.1 to 5 µM; in the experiment with Z138 cells (Z138 cells, approximately 64-72 hours incubation) it was 0.1 to 5 µM; with 3T3 cells (3T3 cells, approximately 64-72 hours incubation) it was above 30 µM.

Consider `Nc1ccc(/C=C/C(=O)NCC2Cc3c(-c4ccc(C(=O)N5CCOCC5)nc4)ccc(Cl)c3O2)cn1` (stereo not drawn) [Compound 910, (E)-3-(6-aminopyridin-3-yl)-N-((7-chloro-4-(6-(morpholine-4-carbonyl)pyridin-3-yl)-2,3-dihydrobenzofuran-2-yl)methyl)acrylamide], for which the 50% inhibitory concentration (IC50) is 0.1 to 5 µM with MS751 cells (setting [1]), below 0.1 µM in the experiment with Z138 cells (setting [2]) and 5 to 30 µM in the experiment with 3T3 cells (setting [3]).

On to `CC(=O)c1ccc(-c2cc(F)c3c(c2)CC(CNC(=O)/C=C/c2cccnc2)O3)s1` (stereo not drawn) [Compound 87, (E)-N-((5-(5-acetylthiophen-2-yl)-7-fluoro-2,3-dihydrobenzofuran-2-yl)methyl)-3-(pyridin-3-yl)acrylamide], for which the IC50 in the experiment with MS751 cells (setting [4]), in the experiment on Z138 cells (setting [5]) and with 3T3 cells (setting [6]) was 0.1 to 5 µM in each case.

`CC(=O)c1ccc(-c2cc(Cl)c3c(c2)CC(CNC(=O)/C(C#N)=C/c2cccnc2)O3)s1` (stereo not drawn) [Compound 195, (E)-N-((5-(5-acetylthiophen-2-yl)-7-chloro-2,3-dihydrobenzofuran-2-yl)methyl)-2-cyano-3-(pyridin-3-yl)acrylamide]: the half-inhibitory concentration (IC50) was 5 to 30 µM in the experiment on MS751 cells (setting [1]), 5 to 30 µM in the experiment on Z138 cells (setting [2]) and above 30 µM in the experiment with 3T3 cells (setting [3]).

On to `CCn1ccnc1/C=C/C(=O)NCC1Cc2cc(-c3ccc(C(C)=O)s3)cc(Cl)c2O1` (stereo not drawn) [Compound 191, (E)-N-((5-(5-acetylthiophen-2-yl)-7-chloro-2,3-dihydrobenzofuran-2-yl)methyl)-3-(1-ethyl-1H-imidazol-2-yl)acrylamide], for which the figures for the IC50 with MS751 cells (setting [1]), in the experiment on Z138 cells (setting [2]) and in the experiment with 3T3 cells (setting [3]) were 5 to 30 µM, 5 to 30 µM and above 30 µM, respectively.

For `Nc1ccc(CNC(=O)/C=C/C2Cc3c(-c4ccc(S(=O)(=O)N5CCOCC5)cc4)ccc(Cl)c3O2)cn1` (stereo not drawn) [Compound 364, (E)-N-((6-aminopyridin-3-yl)methyl)-3-(7-chloro-4-(4-(morpholinosulfonyl)phenyl)-2,3-dihydrobenzofuran-2-yl)acrylamide], the IC50 in the experiment on MS751 cells (setting [1]) is 0.1 to 5 µM; in the experiment on Z138 cells (setting [2]), above 30 µM; with 3T3 cells (setting [3]), 5 to 30 µM.

Consider `CC(=O)c1ccc(-c2cc(Cl)c3c(c2)CC(CNC(=O)/C=C/c2cn(C)nc2C)O3)s1` (stereo not drawn) [Compound 156, (E)-N-((5-(5-acetylthiophen-2-yl)-7-chloro-2,3-dihydrobenzofuran-2-yl)methyl)-3-(1,3-dimethyl-1H-pyrazol-4-yl)acrylamide], for which the IC50 in the experiment on MS751 cells (setting [4]), with Z138 cells (setting [5]) and in the experiment on 3T3 cells (setting [6]) was above 30 µM throughout.

Take `O=C(/C=C/c1cccnc1)NCC1Cc2cc(-c3ccco3)cc(Cl)c2O1` (stereo not drawn) [Compound 42, (E)-N-((7-chloro-5-(furan-2-yl)-2,3-dihydrobenzofuran-2-yl)methyl)-3-(pyridin-3-yl)acrylamide]: the IC50 was 0.1 to 5 µM in the experiment on MS751 cells (setting [4]), 0.1 to 5 µM in the experiment with Z138 cells (setting [5]) and 5 to 30 µM with 3T3 cells (setting [6]).

Turning to `C=C(Cc1cccnc1)C(=O)NCC1Cc2cc(-c3ccc(C(C)=O)s3)cc(Cl)c2O1` (stereo not drawn) [Compound 240, N-((5-(5-acetylthiophen-2-yl)-7-chloro-2,3-dihydrobenzofuran-2-yl)methyl)-2-(pyridin-3-ylmethyl)acrylamide], the IC50 with MS751 cells (setting [1]) is 5 to 30 µM; in the experiment on Z138 cells (setting [2]), 5 to 30 µM; with 3T3 cells (setting [3]), above 30 µM.

As for `CC(=O)c1ccc(-c2cc(Cl)c3c(c2)CC(CNC(=O)/C=C/c2sccc2Cl)O3)s1` (stereo not drawn) [Compound 163, (E)-N-((5-(5-acetylthiophen-2-yl)-7-chloro-2,3-dihydrobenzofuran-2-yl)methyl)-3-(3-chlorothiophen-2-yl)acrylamide], the IC50 in the experiment on MS751 cells (setting [4]), with Z138 cells (setting [5]) and with 3T3 cells (setting [6]) was above 30 µM throughout.

Consider `CC(=O)c1ccc(-c2cc(Cl)c3c(c2)CC(CNC(=O)/C=C/c2csnn2)O3)s1` (stereo not drawn) [Compound 281, (E)-N-((5-(5-acetylthiophen-2-yl)-7-chloro-2,3-dihydrobenzofuran-2-yl)methyl)-3-(1,2,3-thiadizol-5-yl)acrylamide], for which the IC50 with MS751 cells (setting [1]), in the experiment on Z138 cells (setting [2]) and in the experiment with 3T3 cells (setting [3]) was above 30 µM each time.

On to `O=C(/C=C/c1cccnc1)NCC1Cc2cccc(Cl)c2O1` (stereo not drawn) [Compound 83, (E)-N-((7-chloro-2,3-dihydrobenzofuran-2-yl)methyl)-3-(pyridin-3-yl)acrylamide], for which the IC50 is 5 to 30 µM in the experiment with MS751 cells (setting [4]), 5 to 30 µM in the experiment on Z138 cells (setting [5]) and above 30 µM with 3T3 cells (setting [6]).

On to `Nc1ccc(/C=C/C(=O)NCC2Cc3cc(-c4cnc(C(=O)N5CCOCC5)nc4)cc(Cl)c3O2)cn1` (stereo not drawn) [Compound 323, (E)-3-(6-aminopyridin-3-yl)-N-((7-chloro-5-(2-(morpholine-4-carbonyl)pyrimidin-5-yl)-2,3-dihydrobenzofuran-2-yl)methyl)acrylamide], for which the half-inhibitory concentration (IC50) lay within 0.1 to 5 µM with MS751 cells (setting [1]), 0.1 to 5 µM with Z138 cells (setting [2]) and 5 to 30 µM in the experiment with 3T3 cells (setting [3]).

Take `CC(=O)c1ccc(-c2cc(Cl)c3c(c2)CC(CNC(=O)/C=C(/C)c2cccnc2)O3)s1` (stereo not drawn) [Compound 282, (Z)-N-((5-(5-Acetylthiophen-2-yl)-7-chloro-2,3-dihydrobenzofuran-2-yl)methyl)-3-(pyridin-3-yl)but-2-enamide]: the IC50 with MS751 cells (setting [1]) is 0.1 to 5 µM; in the experiment on Z138 cells (setting [2]) it was 0.1 to 5 µM; with 3T3 cells (setting [3]), above 30 µM.

For `CC(=O)c1ccc(-c2cc(Cl)c3c(c2)CC(CNC(=O)/C=C/c2cc(C)n(-c4ccc(Cl)cc4)c2C)O3)s1` (stereo not drawn) [Compound 209, (E)-N-((5-(5-acetylthiophen-2-yl)-7-chloro-2,3-dihydrobenzofuran-2-yl)methyl)-3-(1-(4-chlorophenyl)-2,5-dimethyl-1H-pyrrol-3-yl)acrylamide], the IC50 in the experiment on MS751 cells (setting [1]), in the experiment with Z138 cells (setting [2]) and with 3T3 cells (setting [3]) was above 30 µM in each case.
